From patent US12558302B2, “Tyrosinase-inhibiting molecules and dermopharmaceutical composition that includes them” (MESOESTETIC PHARMA GROUP, S.L, priority 2021, dated 2026)
Values joined by “and” are separate entries in the source; they are usually repeats but may differ in a detail not shown here. Equal values may be shown once.

Experiments:
melanocyte = melanocyte cytotoxicity; format: cell-based; settings: human melanocytes
Procedure: (§1) With the aim of studying the inhibition of molecules in melanin, an in vitro assay was conducted on human melanocytes using similar conditions to those described in the tyrosinase inhibition assay. L-tyrosine is used to stimulate melanogenic activity in cells with the aim of extracting the melanin. Here, only the molecules with the best tyrosinase-inhibiting activity were tested (formulas (II) and (III)). In this experiment, the concentration of molecules used is the highest possible taking into account the melanocyte cytotoxicity value, 1.25 mM for the molecule of formula (II) and 0.33 mM for the molecule of formula (III).

tyrosinase = molecular target: T1, tyrosinase (Homo sapiens, UniProt P14679); test: tyrosinase activity in lysate of L-tyrosine-stimulated human melanocytes (L-DOPA/MBTH); format: biochemical; settings: L-tyrosine-stimulated control = 100%
T1 construct: the cells were trypsinised and lysated in PBS pH 7.0 with 1% Triton X-100; host or cells: human melanocytes (primary), stimulated with 2 mM L-tyrosine; Triton X-100 lysate
T1 sequence (P14679 19-529): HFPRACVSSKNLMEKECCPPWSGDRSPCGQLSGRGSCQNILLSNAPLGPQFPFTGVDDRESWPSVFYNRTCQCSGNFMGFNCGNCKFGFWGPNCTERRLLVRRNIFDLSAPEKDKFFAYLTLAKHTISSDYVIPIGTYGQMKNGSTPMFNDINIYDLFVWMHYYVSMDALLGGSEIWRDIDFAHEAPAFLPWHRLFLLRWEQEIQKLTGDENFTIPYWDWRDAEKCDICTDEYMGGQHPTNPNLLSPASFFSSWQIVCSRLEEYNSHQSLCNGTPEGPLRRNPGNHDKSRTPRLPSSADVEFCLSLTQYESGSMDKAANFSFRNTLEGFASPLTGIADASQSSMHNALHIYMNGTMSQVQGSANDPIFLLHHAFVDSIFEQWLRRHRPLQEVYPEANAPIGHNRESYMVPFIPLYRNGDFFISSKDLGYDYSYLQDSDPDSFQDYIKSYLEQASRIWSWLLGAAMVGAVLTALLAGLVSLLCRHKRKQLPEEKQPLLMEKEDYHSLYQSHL
Procedure: Given the results, an in vitro assay was conducted on human melanocytes. In order to stimulate melanogenic activity in the cells they were treated with L-tyrosine. This compound, in addition to being a substrate of the tyrosinase enzyme, key to melanin synthesis, is capable of activating cell receptors that activate the melanogenesis-regulating signalling pathways (Slominski A, et al. L-tyrosine and L-dihydroxyphenylalanine as hormone-like regulators of melanocyte functions. Pigment Cell Melanoma Res. 2012; 25(1):14-27). This condition is aimed at stimulating melanogenesis in melanocytes for the purpose of extracting tyrosinase and testing the effect of the molecules of the invention.
Thus, human melanocytes were cultured in culture medium (#PCS-200-013, ATCC) and L-tyrosine (2 mM) for 3 days. After the stimulation treatment, the cells were trypsinised and lysated in PBS pH 7.0 with 1% Triton X-100. The cell lysate, which contains tyrosinase, was incubated together with the molecules of the invention at different concentrations (0.1 and 1 mM), L-DOPA and MBTH (Winder A J and Harris H. New assays for the tyrosine hydroxylase and dopa oxidase activities of tyrosinase. Eur. J. Biochem. 1991; 198(2):317-26). L-DOPA acts as a substrate for tyrosinase in the enzyme reaction and MBTH is a compound that bonds to the […] formed from the oxidation of L-DOPA, generating a colour complex. Each of the conditions used was prepared in triplicate. Lastly, absorbance at 492 nm was monitored using a spectrophotometer every 10 min for 2-5 h.

human melanocytes = test: melanin content in L-tyrosine-stimulated human melanocytes; format: cell-based; settings: 3 days, L-tyrosine 2 mM, stimulated control = 100%
Procedure: as §1
Thus, human melanocytes are cultured in culture medium (#PCS-200-013, ATCC). L-tyrosine (2 mM) was added together with the molecule treatment. All the conditions were prepared in triplicate. After incubating the cells with the treatments for 3 days, they were trypsinised and lysated in 1M NaOH. Cell lysate absorbance at 340 nm was measured using a spectrophotometer. The absorbance value is directly proportional to melanin content.

[1] = water solubility compared to DMSO by HPLC; format: physicochemical; settings: 50 mg/ml; for Percentage of water solubility compared to the samples dissolved in DMSO: 1 hour stirring at room temperature, filtered, HPLC
Procedure: Solutions are prepared in DMSO and in water for each of the molecules. All the samples are prepared at a final concentration of 50 mg/ml. After stirring for 1 hour at room temperature, the samples are filtered and a HPLC is performed.
In order to calculate the percentage of solubility of each of the molecules, the area of the peak of the sample dissolved in water and in DMSO obtained by HPLC is determined. The results are given as a percentage of solubility of the compound dissolved in water in the compound dissolved in DMSO.

Compound	highest possible concentration taking into account the melanocyte cytotoxicity value (melanocyte)	Percentage of tyrosinase activity (tyrosinase; 0.1 mM)	Percentage of tyrosinase activity (tyrosinase; 1 mM)	melanin content (human melanocytes; 1.25 mM)	water solubility (in words) [1]	Percentage of water solubility compared to the samples dissolved in DMSO [1]	melanin content (human melanocytes; 0.33 mM)
O=C(/C=C/c1ccc(O)c(S(=O)(=O)O)c1)c1ccc(O)c(S(=O)(=O)O)c1 [II, 5-[(E)-2-(4-hydroxy-3-sulfobenzoyl)-1-ethenyl]-2-hydroxybenzenesulfonic Acid]	1.25 mM	97% and 97 ± 0%	55% and 55 ± 1%	78±7%	highly soluble	81%	–
O=C(/C=C/c1ccc(O)cc1)c1ccc(O)c(S(=O)(=O)O)c1 [III, 5-[(E)-3-(p-hydroxyphenyl)acryloyl]-2-hydroxybenzenesulfonic Acid]	0.33 mM	82% and 82 ± 2%	44% and 44 ± 1%	–	highly soluble	84%	49±7%
O=C(/C=C/c1ccc(O)c(S(=O)(=O)[O-])c1)c1ccc(O)c(S(=O)(=O)[O-])c1.[K+].[K+] [IV M = K, 5-[(E)-2-(4-hydroxy-3-sulfonatebenzoyl)-1-ethenyl]-2-hydroxybenzenesulfonate, Dipotassium Salt]	–	>97%	97 ± 1%	–	–	100%	–
O=C(/C=C/c1ccc(O)cc1)c1ccc(O)cc1 [Reference molecule, (E)-1,3-bis(p-hydroxyphenyl)-2-propen-1-one, reference compound]	–	97 ± 3%	84 ± 4%	–	fully water soluble	0%	–
CCN(CC)CC.O=C(/C=C/c1ccc(O)cc1)c1ccc(O)c(S(=O)(=O)O)c1 [V M = (C2H5)3N, 5-[(E)-3-(p-hydroxyphenyl)acryloyl]-2-triethylammonium hydroxybenzenesulfonate]	–	>97%	83 ± 0%	–	–	100%	–
O=C(/C=C/c1ccc(O)cc1)c1ccc(O)c(S(=O)(=O)[O-])c1.[Na+] [V M = Na, 5-[(E)-3-(p-hydroxyphenyl)acryloyl]-2-sodium Hydroxybenzenesulfonate]	–	>97%	82 ± 3%	–	–	100%	–
O=C(CCc1ccc(O)c(S(=O)(=O)[O-])c1)c1ccc(O)c(S(=O)(=O)[O-])c1.[K+].[K+] [VI M = K, 2-hydroxy-5-[2-(4-hydroxy-3-sulfonatebenzoyl)ethyl]-benzenesulfonate, Dipotassium Salt]	–	>97%	91 ± 3%	–	–	100%	–
